Test results: article PMC5615911 (Toxicology Reports, 2016)
Values joined by “and” are separate entries in the source; they are usually repeats but may differ in a detail not shown here. Equal entries are not always repeated.

Assays:
[1] = Pharmacokinetics of S3643, single iv or oral dose; assay type: in vivo, Sprague-Dawley rats; conditions: male; for AUC(0-t): AUClast
[2] = Toxicokinetics in the 90-day dietary study; assay type: in vivo, Sprague-Dawley rats; conditions: for AUC0–24 h/dose / Cmax/dose: M+F combined
[3] = target: CYP2D6 (Homo sapiens, UniProt P10635); assay: CYP inhibition, LC–MS/MS assay in human liver microsomes; conditions: probe bufuralol
Sequence of CYP2D6 (P10635 whole entry): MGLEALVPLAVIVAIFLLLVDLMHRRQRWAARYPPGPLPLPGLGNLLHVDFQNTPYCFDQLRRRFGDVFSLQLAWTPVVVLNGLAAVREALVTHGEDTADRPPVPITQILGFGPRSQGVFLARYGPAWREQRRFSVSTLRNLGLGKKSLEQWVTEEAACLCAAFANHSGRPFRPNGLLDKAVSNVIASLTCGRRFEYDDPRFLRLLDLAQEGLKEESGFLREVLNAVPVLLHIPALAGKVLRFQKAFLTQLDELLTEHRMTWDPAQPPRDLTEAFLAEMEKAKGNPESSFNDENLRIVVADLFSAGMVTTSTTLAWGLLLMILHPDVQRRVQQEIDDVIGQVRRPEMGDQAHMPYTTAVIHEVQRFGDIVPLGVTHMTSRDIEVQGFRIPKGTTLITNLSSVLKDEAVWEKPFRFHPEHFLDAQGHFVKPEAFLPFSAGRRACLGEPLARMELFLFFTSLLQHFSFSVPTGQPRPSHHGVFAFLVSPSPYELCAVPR

[4] = tested on: Chinese hamster ovary cells (CHO-WBL); assay: In vitro micronucleus test; assay type: cell-based
[5] = tested on: Primary human lymphocytes; assay: In vitro chromosome aberration test
[6] = tested on: S. typhimurium strains TA98, TA100, TA1535, TA1537; assay: Bacterial reverse mutation test; assay type: cell-based
[7] = 90-day subchronic toxicity study; assay type: in vivo, Sprague-Dawley rats
[8] = tested on: E. coli strain WP2 uvrA; assay: Bacterial reverse mutation test; assay type: cell-based
[9] = Sprague-Dawley, rat, plasma, po, 100 mg/kg
[10] = absence and presence of metabolic activation
[11] = 10, 30, 100 mg/kg bw/day (food ad-mix)

Structure (SMILES): COc1cccc(-c2n[nH]c(SCc3ccccn3)n2)c1OC [S3643, 2-(((3-(2,3-dimethoxyphenyl)-1H-1,2,4-triazol-5-yl)thio)methyl)pyridine]
- AUC(0-t) ([1]; Sprague-Dawley, rat, plasma, po, 30 mg/kg, oral 30 mg/kg bw): 80.3 µg·h/mL
- Cmax ([1]; Sprague-Dawley, rat, plasma, po, 30 mg/kg, Cmax, oral 30 mg/kg bw): 50900 ng/mL
- Tmax [1, 9]: 18.6 min
- bioavailability [1, 9]: 65.7%
- half-life [1, 9]: 99.6 min
- AUC(0-t) ([1]; Sprague-Dawley, rat, plasma, po, 100 mg/kg, oral 100 mg/kg bw): 183 µg·h/mL
- Cmax ([1]; Sprague-Dawley, rat, plasma, po, 100 mg/kg, Cmax, oral 100 mg/kg bw): 78300 ng/mL and 238 µM
- CL as % of hepatic blood flow ([1]; iv): 10.8%
- Vss as % of total body water volume ([1]; iv): 50.4%
- AUC0-last/dose ([1]; iv 1.0 mg/kg bw): 2790 ng·h/mL/mg/kg
- AUC0-last ([1]; iv 1.0 mg/kg bw, 1 mg/kg): 2.79 ± 0.187 µg·h/mL
- Cmax ([1]; iv 1.0 mg/kg bw, 1 mg/kg): 10870 ± 1870 ng/mL
- AUC0-last/dose ([1]; oral gavage 10 mg/kg bw): 2665 ng·h/mL/mg/kg
- Cmax ([1]; oral gavage 10 mg/kg bw, 10 mg/kg): 32510 ± 7710 ng/mL
- AUC0-last/dose ([1]; oral gavage 30 mg/kg bw): 2678 ng·h/mL/mg/kg
- AUC0-last/dose ([1]; oral gavage 100 mg/kg bw): 1833 ng·h/mL/mg/kg
- AUC0–24 h/dose ([2]; Day 7, nominal 10 mg/kg bw): 574 ng·h/mL/mg/kg
- Cmax/dose ([2]; Day 7, nominal 10 mg/kg bw): 31.9 ng/mL/mg/kg
- AUC0–24 h/dose ([2]; Day 7, nominal 30 mg/kg bw): 1140 ng·h/mL/mg/kg
- Cmax/dose ([2]; Day 7, nominal 30 mg/kg bw): 80.6 ng/mL/mg/kg
- AUC0–24 h/dose ([2]; Day 7, nominal 100 mg/kg bw): 1280 ng·h/mL/mg/kg
- Cmax/dose ([2]; Day 7, nominal 100 mg/kg bw): 75.7 ng/mL/mg/kg
- AUC0–24 h/dose ([2]; Day 90, nominal 10 mg/kg bw): 1070 ng·h/mL/mg/kg
- Cmax/dose ([2]; Day 90, nominal 10 mg/kg bw): 78.3 ng/mL/mg/kg
- AUC0–24 h/dose ([2]; Day 90, nominal 30 mg/kg bw): 1560 ng·h/mL/mg/kg
- Cmax/dose ([2]; Day 90, nominal 30 mg/kg bw): 98.0 ng/mL/mg/kg
- AUC0–24 h/dose ([2]; Day 90, nominal 100 mg/kg bw): 1730 ng·h/mL/mg/kg
- Cmax/dose ([2]; Day 90, nominal 100 mg/kg bw): 97.5 ng/mL/mg/kg
- ACUM Ratio ([2]; Day 90/Day 7, nominal 10 mg/kg bw): 1.86
- ACUM Ratio ([2]; Day 90/Day 7, nominal 30 mg/kg bw): 1.37
- ACUM Ratio ([2]; Day 90/Day 7, nominal 100 mg/kg bw): 1.35
- AUC(0-t) ([2]; both, Sprague-Dawley (Crl:CD(SD)), rat, plasma, po, 100 mg/kg bw/day, Combined mean AUC0-24hr, Day 90, 100 mg/kg bw/day): 184 µg·h/mL
- inhibition at 10 µM [3]: 22%
- Micronucleus formation (in vitro), result ([4]; 16–63 μg/mL, 19 h exposure, −S9): Negative
- Micronucleus formation (in vitro), result ([4]; 50–200 μg/mL, 3 h exposure, +S9): Negative
- Micronucleus formation (in vitro), result ([4]; 100–300 μg/mL, 3 h exposure, −S9): Negative
- % cells in cytostasis ([4]; 3 h, +S9, 50 μg/mL): −1%
- % cells in cytostasis ([4]; 3 h, +S9, 100 μg/mL): −2%
- % cells in cytostasis ([4]; 3 h, −S9, 100 μg/mL): 1%
- % cells in cytostasis ([4]; 3 h, −S9, 200 μg/mL): 0%
- % cells in cytostasis ([4]; 3 h, −S9, 300 μg/mL): 25%
- % cells in cytostasis ([4]; 3 h, −S9, 450 μg/mL): 93%
- % cells in cytostasis ([4]; 19 h, −S9, 16 μg/mL): 10%
- % cells in cytostasis ([4]; 19 h, −S9, 63 μg/mL): 50%
- % cells in cytostasis ([4]; 19 h, −S9, 130 μg/mL): 93%
- Induction of micronuclei, conclusion ([4]; all conditions): did not induce micronuclei
- Chromosome aberration (in vitro), result ([5]; 63–250 μg/mL, 3 h exposure, +S9): Negative
- Chromosome aberration (in vitro), result ([5]; 63–250 μg/mL, 20 h exposure, −S9): Negative
- Chromosome aberration (in vitro), result ([5]; 130–500 μg/mL, 3 h exposure, −S9): Negative
- Induction of structural and numerical chromosome aberrations, conclusion ([5]; non-activated and S9-activated): negative
- Reverse mutation (in vitro), result ([6]; 63–1000 μg/plate, preincubation, +S9): Negative
- Reverse mutation (in vitro), result ([6]; 130–2000 μg/plate, plate incorporation, ±S9): Negative
- Reverse mutation (in vitro), result ([6]; 130–2000 μg/plate, preincubation, −S9): Negative
- Mutagenicity, conclusion [6, 10]: not mutagenic
- Findings, adverse effects [7, 11]: No adverse test-article related findings
- Findings, body weight [7, 11]: Lower body weight gain in females at 100 mg/kg/day
- NOAEL ([7]; 90 days in diet, male and female rats, highest dose tested): 100 mg/kg bw/day
- Mean body weight lower than controls ([7]; females, 100 mg/kg bw/day, beginning at Week 5): 7%
- Absolute liver weight increase vs control ([7]; males, 100 mg/kg bw/day): 12.5%
- Liver/body weight increase vs control ([7]; males, 100 mg/kg bw/day): 14.1%
- Liver/brain weight increase vs control ([7]; males, 100 mg/kg bw/day): 13.5%
- Margin of safety (NOAEL vs per capita intake 5 μg/kg bw/day) ([7]; rat, in vivo): > 20,000 fold
- Reverse mutation (in vitro), result ([8]; 250–5000 μg/plate, plate incorporation and pre-incubation, ±S9): Negative
- Mutagenicity, conclusion [8, 10]: not mutagenic
